Experimental data taken from article PMC7822819, “Discovery of a new class of integrin antibodies for fibrosis” (Scientific Reports, 2021).
Read-outs that look alike come from different tables or passages of the source.

Columns and labels:
CHOK1-mαvβ3 cells = target: T1, CHOK1-mαvβ3 cells (Mus musculus, UniProt O54890+P43406); assay: Cell adhesion assay (Epic) on vitronectin; format: cell-based; conditions: vitronectin matrix; in words
T1 construct: expressed in transfected cells
Method: (§1) For plate preparation, Epic 384-well assay plates (Corning #5040) were washed with OptiMEM (Gibco #31985-070) and coated with murine fibronectin (Abcam #ab92784) at a concentration of 0.1 μg/well for CHO-a5KO-mαvβ1 cells; murine vitronectin (Abcam #ab92727) at 0.075 μg/well for CHO-mαvβ3 cells; or murine vitronectin at 0.125 μg/well for CHO-mαvβ5 (all at a volume of 25 μl/well in OptiMEM), for 1 h. Coating solution was then removed by flicking and plates were washed with OptiMEM and blocked with 25 μl/well of assay buffer [1% Ovalbumin (Sigma #A5503-10G) in OptiMEM containing 1X Pen-Strep (Gibco #15140-148)]. A 5-min baseline reading was taken on a Corning Epic Plate Reader (Model: Epic BT-157900) before removing the assay buffer and adding cells pre-incubated with inhibitors. The Epic plate reader detects cellular mass redistribution (adhesion) on the plate surface as a picometer wavelength shift over time. […] Cells were incubated with the inhibitors for 1 h at RT with gentle rocking, after which 50 μL per well was transferred to the Epic assay plate, and a time course of cell adhesion was monitored for an additional 3 h.

CHOK1-mαvβ5 cells = target: T2, CHOK1-mαvβ5 cells (Mus musculus, UniProt O70309+P43406); assay: Cell adhesion assay (Epic) on vitronectin; format: cell-based; conditions: vitronectin matrix; in words
T2 construct: expressed in transfected cells
T2 sequence (P43406 31-1044): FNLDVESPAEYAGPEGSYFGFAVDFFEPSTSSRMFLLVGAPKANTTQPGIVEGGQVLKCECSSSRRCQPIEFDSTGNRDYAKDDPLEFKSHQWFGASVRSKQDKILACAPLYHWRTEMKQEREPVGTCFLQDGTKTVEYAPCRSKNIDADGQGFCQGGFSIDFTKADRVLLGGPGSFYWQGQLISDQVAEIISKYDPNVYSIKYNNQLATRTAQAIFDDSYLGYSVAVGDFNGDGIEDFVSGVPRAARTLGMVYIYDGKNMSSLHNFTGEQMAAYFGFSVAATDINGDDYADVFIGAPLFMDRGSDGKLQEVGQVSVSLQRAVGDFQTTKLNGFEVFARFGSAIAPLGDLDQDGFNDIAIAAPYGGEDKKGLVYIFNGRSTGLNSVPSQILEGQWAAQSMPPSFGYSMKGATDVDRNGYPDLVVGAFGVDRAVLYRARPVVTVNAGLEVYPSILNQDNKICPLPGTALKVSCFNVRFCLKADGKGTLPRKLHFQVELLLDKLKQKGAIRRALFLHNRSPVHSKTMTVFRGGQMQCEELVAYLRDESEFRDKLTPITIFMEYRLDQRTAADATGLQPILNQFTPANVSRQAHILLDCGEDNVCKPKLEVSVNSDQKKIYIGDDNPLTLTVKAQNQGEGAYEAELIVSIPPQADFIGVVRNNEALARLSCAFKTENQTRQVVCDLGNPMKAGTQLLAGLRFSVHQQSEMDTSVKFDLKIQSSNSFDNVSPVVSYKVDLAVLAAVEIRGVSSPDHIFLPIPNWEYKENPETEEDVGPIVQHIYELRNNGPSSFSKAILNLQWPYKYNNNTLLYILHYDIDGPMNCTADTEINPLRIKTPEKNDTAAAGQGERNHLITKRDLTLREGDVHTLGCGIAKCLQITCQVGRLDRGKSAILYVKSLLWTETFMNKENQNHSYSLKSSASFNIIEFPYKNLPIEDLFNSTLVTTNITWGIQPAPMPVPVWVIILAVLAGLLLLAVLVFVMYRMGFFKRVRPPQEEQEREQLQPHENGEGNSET
T2 sequence (O70309 24-798): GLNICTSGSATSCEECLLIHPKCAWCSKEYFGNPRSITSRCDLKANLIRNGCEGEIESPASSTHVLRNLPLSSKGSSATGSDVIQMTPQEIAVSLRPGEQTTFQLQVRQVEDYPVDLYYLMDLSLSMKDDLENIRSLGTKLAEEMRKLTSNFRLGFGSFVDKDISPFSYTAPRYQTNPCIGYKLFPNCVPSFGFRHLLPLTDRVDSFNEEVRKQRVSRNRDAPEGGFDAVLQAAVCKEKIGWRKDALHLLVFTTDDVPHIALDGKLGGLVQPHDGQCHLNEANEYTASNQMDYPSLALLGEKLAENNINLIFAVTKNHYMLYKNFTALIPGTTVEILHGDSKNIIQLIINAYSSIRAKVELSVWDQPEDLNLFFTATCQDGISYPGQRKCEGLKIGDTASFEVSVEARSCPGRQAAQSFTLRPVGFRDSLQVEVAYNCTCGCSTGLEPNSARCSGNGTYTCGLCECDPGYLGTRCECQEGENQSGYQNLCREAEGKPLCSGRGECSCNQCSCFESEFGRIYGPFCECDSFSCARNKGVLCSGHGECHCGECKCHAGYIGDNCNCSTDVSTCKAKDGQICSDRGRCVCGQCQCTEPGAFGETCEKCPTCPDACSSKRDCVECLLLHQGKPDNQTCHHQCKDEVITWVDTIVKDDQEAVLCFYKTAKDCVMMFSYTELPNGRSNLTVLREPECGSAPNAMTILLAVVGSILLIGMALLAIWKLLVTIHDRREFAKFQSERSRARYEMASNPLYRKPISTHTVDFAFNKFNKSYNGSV
Method: as §1

mouse αvβ6 = target: T3, mouse αvβ6 (Mus musculus, UniProt P43406+Q9Z0T9); assay: Latent TGFβ activation assay (TMLC / CHOK1-integrin co-culture, PAI-1 luciferase); format: cell-based; conditions: in words
T3 construct: expressed in transfected cells
T3 sequence (P43406 31-1044): as the sequence (P43406 31-1044) above
T3 sequence (Q9Z0T9 22-787): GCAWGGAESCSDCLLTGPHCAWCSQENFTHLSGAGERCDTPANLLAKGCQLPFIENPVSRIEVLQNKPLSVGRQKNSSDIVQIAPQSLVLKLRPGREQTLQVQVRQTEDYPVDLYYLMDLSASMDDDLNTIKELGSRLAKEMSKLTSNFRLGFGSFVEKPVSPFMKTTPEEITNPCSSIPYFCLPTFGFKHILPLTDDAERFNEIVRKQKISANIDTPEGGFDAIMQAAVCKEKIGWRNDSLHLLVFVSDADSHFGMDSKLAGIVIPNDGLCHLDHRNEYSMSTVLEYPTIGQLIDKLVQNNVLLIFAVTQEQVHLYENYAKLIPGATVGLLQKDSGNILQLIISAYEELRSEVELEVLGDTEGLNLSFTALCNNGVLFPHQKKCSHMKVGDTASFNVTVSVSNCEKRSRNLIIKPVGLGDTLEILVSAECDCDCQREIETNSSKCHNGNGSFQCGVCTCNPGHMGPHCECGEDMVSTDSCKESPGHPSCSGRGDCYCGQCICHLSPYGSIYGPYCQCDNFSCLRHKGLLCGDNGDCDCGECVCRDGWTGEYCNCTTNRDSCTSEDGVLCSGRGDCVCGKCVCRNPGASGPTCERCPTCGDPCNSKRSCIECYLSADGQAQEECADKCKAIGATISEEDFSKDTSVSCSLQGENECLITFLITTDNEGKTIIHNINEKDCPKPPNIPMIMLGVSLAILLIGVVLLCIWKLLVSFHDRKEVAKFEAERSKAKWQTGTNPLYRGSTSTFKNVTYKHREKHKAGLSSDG
Method: (§2) Transfected mink lung epithelial cell (TMLC) cell line containing the TGFβ responsive PAI-1 promoter driving luciferase expression[29] and the CHO-K1 human and mouse αvβx integrin cell lines were grown under optimized growth conditions to 90% confluency. TMLC cells were trypsinized and plated at 25,000 cells/well in 50 μL in Costar clear bottom white walled plates. In a separate plate, 25 μL of serially diluted antibodies at 4X concentration were added to wells containing 25 μL of either 25,000 cells of human or mouse αvβx cells. After a brief mixing, the 50 μL mixture was transferred to the TMLC cell plates for a total volume of 100 μL and incubated at 37 °C for 16 h. 100 μL of ONE-Glo kit (#PRE6120) was added to each well and read after 3–5 min on the Envision plate reader.

[1] = test system: diabetic nephropathy model; design: method as in PMID 28971604; conditions: cited from earlier work
[2] = design: method as in PMID 15687321; conditions: humans; cited from earlier work
human αvβ6 = human αvβ6 (Homo sapiens, UniProt P06756+P18564); assay: Latent TGFβ activation assay (TMLC / CHOK1-integrin co-culture, PAI-1 luciferase); format: cell-based; design: expressed in transfected cells; conditions: in words
Method: as §2

human αvβ8 = human αvβ8 (Homo sapiens, UniProt P06756+P26012); assay: AlphaLISA integrin-ligand binding assay; format: biochemical; design: hαV 1 992; hβ8 1 684; made in house; host or cells: Expi293
human αvβ8, sequence (P06756 31-992): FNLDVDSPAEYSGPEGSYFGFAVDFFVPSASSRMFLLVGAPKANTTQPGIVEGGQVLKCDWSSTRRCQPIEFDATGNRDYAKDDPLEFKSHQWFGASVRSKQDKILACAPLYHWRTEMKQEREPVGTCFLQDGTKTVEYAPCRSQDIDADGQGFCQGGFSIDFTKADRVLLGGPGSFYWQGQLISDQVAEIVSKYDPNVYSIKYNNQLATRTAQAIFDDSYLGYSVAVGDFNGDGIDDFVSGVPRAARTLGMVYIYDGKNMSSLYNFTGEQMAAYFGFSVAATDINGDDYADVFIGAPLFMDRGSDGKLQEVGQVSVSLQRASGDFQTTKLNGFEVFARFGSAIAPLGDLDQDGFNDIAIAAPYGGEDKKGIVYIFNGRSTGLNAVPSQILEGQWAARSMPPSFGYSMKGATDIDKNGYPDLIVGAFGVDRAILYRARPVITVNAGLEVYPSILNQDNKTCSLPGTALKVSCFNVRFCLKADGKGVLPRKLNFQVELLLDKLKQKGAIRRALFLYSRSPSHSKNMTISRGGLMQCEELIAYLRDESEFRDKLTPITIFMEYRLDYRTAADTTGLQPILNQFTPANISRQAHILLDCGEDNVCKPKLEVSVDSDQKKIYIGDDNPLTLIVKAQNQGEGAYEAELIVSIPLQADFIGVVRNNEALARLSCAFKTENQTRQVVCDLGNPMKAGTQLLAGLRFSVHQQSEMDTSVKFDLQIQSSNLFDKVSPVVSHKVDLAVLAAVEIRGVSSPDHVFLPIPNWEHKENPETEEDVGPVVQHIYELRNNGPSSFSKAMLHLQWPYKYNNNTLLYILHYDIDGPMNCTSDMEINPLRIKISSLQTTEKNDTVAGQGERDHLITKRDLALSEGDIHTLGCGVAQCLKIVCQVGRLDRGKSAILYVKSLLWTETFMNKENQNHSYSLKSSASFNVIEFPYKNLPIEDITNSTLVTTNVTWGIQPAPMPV
human αvβ8, sequence (P26012 43-684): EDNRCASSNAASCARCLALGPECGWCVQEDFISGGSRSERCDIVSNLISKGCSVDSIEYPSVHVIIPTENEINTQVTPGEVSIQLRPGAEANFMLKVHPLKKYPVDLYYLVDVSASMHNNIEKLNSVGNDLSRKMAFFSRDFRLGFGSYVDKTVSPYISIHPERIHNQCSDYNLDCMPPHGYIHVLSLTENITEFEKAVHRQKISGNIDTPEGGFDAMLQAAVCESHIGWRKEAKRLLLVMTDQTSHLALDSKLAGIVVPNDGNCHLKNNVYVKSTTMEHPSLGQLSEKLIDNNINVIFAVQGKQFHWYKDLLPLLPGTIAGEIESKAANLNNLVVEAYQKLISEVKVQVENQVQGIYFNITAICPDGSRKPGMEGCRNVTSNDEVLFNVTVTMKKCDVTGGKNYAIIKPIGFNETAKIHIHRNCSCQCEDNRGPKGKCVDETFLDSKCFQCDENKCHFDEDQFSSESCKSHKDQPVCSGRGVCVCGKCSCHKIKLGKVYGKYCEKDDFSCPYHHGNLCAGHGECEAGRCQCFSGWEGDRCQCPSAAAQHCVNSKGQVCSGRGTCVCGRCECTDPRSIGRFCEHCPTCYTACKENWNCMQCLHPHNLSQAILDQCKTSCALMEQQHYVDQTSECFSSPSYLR
Method: In the AlphaLISA integrin assays, we used a HEPES based buffer (25 mM HEPES pH 7.4, 137 mM NaCl, 1 mM MgCl2, 1 mM MnCl2, 2 mM CaCl2, 2.7 mM KCl, and 0.05% Tween-20). Optimal assay conditions were determined with a titration of the reagents for signal noise ratio (S/N), linear range, etc. For the respective integrins, we used the final concentrations described in Supplemental Table S3. Briefly, the testing antibody (8 μL) was added as a 4x (of Final testing concentration) solution in the HEPES buffer described previously into a 384w AlphaPlate (Perkin Elmer #6005350). Then the integrin and ligand were added sequentially as 8x (4 μL each). Plates were sealed and incubated at room temperature for 2 h. Then 4 × acceptor bead solution (8 μL) was added, and the plates were resealed and incubated at RT for 1 h. Finally, 4 × (8 μL) donor beads solution was added in a darkened room and incubated for 45 min at room temperature. Plates were read on the Envision (Perkin Elmer) in AlphaScreen mode within 3 h of donor bead addition.
Supplemental Table S3. integrin AlphaLIS A assay reagents and conditions Human A l phal i sa Inte gri n A ssays: Fi nal Condi ti ons […]
( batch de pe nde nt) anti body A l phaLi sa A cce ptor havb1 1. 4 nM 1. 0 nMα - Fi brone cti n human Fi brone cti n n/a A cce ptor be ads/ Pe rki n 10. 0 ug/ m 10. 0 ug/ m […]
havb3 3. 0 nM 10. […]

T1 sequence (P43406 31-1044): as the sequence (P43406 31-1044) above
T1 sequence (O54890 26-787): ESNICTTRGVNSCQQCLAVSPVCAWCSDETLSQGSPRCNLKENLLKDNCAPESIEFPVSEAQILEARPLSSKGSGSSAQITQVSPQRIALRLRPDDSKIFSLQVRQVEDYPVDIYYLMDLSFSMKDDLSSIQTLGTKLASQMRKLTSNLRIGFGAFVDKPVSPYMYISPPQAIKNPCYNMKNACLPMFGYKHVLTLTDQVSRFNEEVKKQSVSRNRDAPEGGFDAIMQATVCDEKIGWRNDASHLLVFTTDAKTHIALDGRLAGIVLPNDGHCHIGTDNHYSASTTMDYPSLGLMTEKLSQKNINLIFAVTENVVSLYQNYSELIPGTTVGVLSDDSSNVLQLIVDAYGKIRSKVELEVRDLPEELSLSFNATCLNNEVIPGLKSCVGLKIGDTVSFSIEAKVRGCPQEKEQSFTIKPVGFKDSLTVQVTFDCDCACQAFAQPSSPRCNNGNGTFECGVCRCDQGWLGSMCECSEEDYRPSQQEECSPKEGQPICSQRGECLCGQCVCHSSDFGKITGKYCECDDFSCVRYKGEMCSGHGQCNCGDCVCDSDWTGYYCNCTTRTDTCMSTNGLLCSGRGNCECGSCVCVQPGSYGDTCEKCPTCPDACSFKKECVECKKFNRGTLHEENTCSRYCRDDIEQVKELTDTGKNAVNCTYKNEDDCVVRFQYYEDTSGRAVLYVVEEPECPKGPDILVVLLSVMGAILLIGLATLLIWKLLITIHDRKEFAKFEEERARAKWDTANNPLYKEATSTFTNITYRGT

With `COc1ccc(C(CC(=O)O)N2CCN(CCCc3ccc4c(n3)NCCC4)C2=O)cn1` (stereo not drawn) [MK-0429] the “Effect on cell adhesion, mouse αvβ3” value (CHOK1-mαvβ3 cells) was “decreased”, the “Effect on cell adhesion, mouse αvβ5” value (CHOK1-mαvβ5 cells) was “decreased” and the “Inhibition of latent TGFβ activation, mouse αvβ6 co-culture” value (mouse αvβ6) was “strong inhibitory effect”. For the same molecule, the Proteinuria [1] was “reduces”, the Renal fibrosis [1] was “reduces” and the Oral bioavailability [2] was “good”. For the same molecule, the “Inhibition of latent TGFβ activation, human αvβ6 co-culture” value (human αvβ6) was “strong inhibitory effect”, the IC50 (human αvβ8; Fig. 3D, assay optimisation, read-out: IC50 human αvβ8 AlphaLISA) was 0.0583 µM and the IC50 (human αvβ8; Fig. 4B, read-out: IC50 Human integrin AlphaLISA assays: hαvβ8) was 0.0031 µM.
